From publication PMC5039532, “Design and Synthesis of Analogues of Marine Natural Product Galaxamide, an N-methylated Cyclic Pentapeptide, as Potential Anti-Tumor Agent in Vitro” (Marine Drugs, 2016)
≈ marks a conversion by molar mass, not a printed value. Where a SMILES comes first, the peptide text is derived from it. [ ]: non-standard residue; d: D form. NMeL = CN[C@@H](CC(C)C)C(=O)O

Experiments:
[1] = system: hepatocellular carcinoma SMMC-7721 cells; assay type: cell-based, human; conditions: for IC50 Value SMMC-7721: 48 h
Method: (§1) Lung cancer A549, drug-resistant lung cancer A549-DPP, human hepatocellular carcinoma HepG2 and hepatocellular carcinoma SMMC-7721 cells obtained from the China cell bank of the Institute of Biochemistry and were cultured in DMEM culture medium (DMEM, Corning, NY, USA) containing 10% fetal bovine serum (FBS, Hyclone, Logan, UT, USA), 1% penicillin-streptomycin and an antifungal agent in a 5% CO2 humidified atmosphere at 37 °C. The culture medium was replaced once in a day. Trypsin digestion method was adopted for cell propagation. Upon reaching 80%–90% confluence, the cells were rinsed twice with PBS. A certain amount of 0.25% trypsin digestion solution was then added and maintained for 3–5 min at 37 °C. Afterward, DMEM culture medium containing 10% fetal bovine serum was added to terminate the digestion. The cells were then blown well to form single cell suspensions.
(§2) The cell viability was determined by measuring the ability of cells to transform MTT (Genview, Houston, TX, USA) to a purple formazan dye. The cells were seeded in 96-well tissue culture plates at 2.5 × 10^3 cells/well for 24 h. The cells were then incubated with galaxamide and its analogues for 48 h. After incubation, 20 μL/well of MTT solution (5 mg/mL phosphate buffered saline) were added and incubated for 5 h. The medium was aspirated and replaced with 100 μL/well of DMSO to dissolve the formazan salt. The color intensity of the formazan solution, which reflects the cell growth condition, was measured at 570 nm using a microplate spectrophotometer (SpectroAma™ 250, Winooski, VT, USA).

[2] = system: drug-resistant lung cancer cell line A549/DPP; assay type: cell-based, human; conditions: 48 h
Method: as §1, §2

[3] = system: Lung cancer cell line A549; assay type: cell-based, human; conditions: 48 h
Method: as §1, §2

SMMC-7721 cells [4] = assay: Cell apoptotic analysis, annexin V/PI staining, flow cytometry; assay type: cell-based, human; conditions: 4, 8 and 16 μg/mL, 48 h, annexin V/PI double staining
Method: The apoptotic cells were quantified using an Annexin V-FITC (Sigma-Aldrich, St. Louis, MO, USA) cell apoptosis assay kit according to instruction provided with kit. In brief, about 1.5 × 10^5 cells were plated in 6-well plates and treated with galaxamide and representative analogues (4, 8, 16 μg/mL) for 48 h. The cells were resuspended in […] binding buffer. Afterward, […] annexin V-fluorescein isothiocyanate (FITC) was added and then incubated in darkness at room temperature for 10 min. The cells were again resuspended in […] binding buffer and stained with […] PI. The prepared cells were then analyzed using a flow cytometry (Coulter Epics Elite, Miami, FL, USA). The cells in the FITC-positive and PI-negative fraction were regarded as apoptotic cells.

SMMC-7721 cells [5] = assay: Cell morphological observation, Hoechst33342 staining; assay type: cell-based, human; conditions: 4, 8 and 16 μg/mL, 48 h, fluorescence microscopy
Method: Exponentially growing SMMC-7721 cells (1 × 10^5 cells/mL) were incubated for 48 h with 4, 8, 16 μg/mL of galaxamide and representative analogues. Apoptotic nuclear morphology was visualized by the Hoechsst33342 staining technique. Cells were fixed with 3.7% of paraformaldehyde for 10 min at room temperature and washed three times with PBS. After fixation, cells were stained using Hoechsst33342 (10 μg/mL) and incubated in the darkness for 10 min. After washing three times with PBS, cells were visualized using fluorescence microscope.

[6] = system: human hepatocellular carcinoma HepG2; assay type: cell-based; conditions: 48 h
Method: as §1, §2

SMMC-7721 cells [7] = assay: Cell cycle analysis by PI staining and flow cytometry; assay type: cell-based, human; conditions: 4, 8 and 16 μg/mL, 48 h
Method: SMMC-7721 cells with the density of about 1.5 × 10^5 were incubated with galaxamide and representative analogues (4, 8, 16 μg/mL) for 48 h. Afterwards, collected cells were washed twice with PBS and centrifugation (1000 rpm, 5 min), then fixed using 70% ethanol for 12 h at 4 °C. Ethanol was removed by centrifugation (2000 rpm, 5 min), and the cells were washed twice with PBS. Cells were then resuspended in […] PI and kept at 37 °C for 15 min. The cell cycle was analyzed by flow cytometry measuring the amount of PI-labeled DNA in fixed cells.

[8] = ratio of IC50 values, MTT assay

IC50 Value SMMC-7721 [1] | IC50 Value A549-DPP [2] | IC50 Value A549 [3] | IC50 Value HepG2 [6] | Compound | induction of apoptosis (in words) (SMMC-7721 cells [4]) | morphological changes (in words) (SMMC-7721 cells [5]) | cell-cycle arrest (in words) (SMMC-7721 cells [7]) | anti-tumor activity towards SMMC-7721, fold higher than galaxamide [1, 8] | anti-tumor activity towards SMMC-7721, fold higher than reference DPP (cisplatin) [1, 8]
1.44 µg/mL (≈ 2.35 µM) | 12.22 µg/mL (≈ 19.9 µM) | 9.4 µg/mL (≈ 15.3 µM) | 6.41 µg/mL (≈ 10.4 µM) | CC(C)C[C@@H]1NC(=O)[C@H](CC(C)C)NC(=O)[C@@H](Cc2ccccc2)NC(=O)[C@H](CC(C)C)N(C)C(=O)[C@@H](CC(C)C)NC1=O [Compound 22, cyclo(D-Phe-Leu-Leu-D-Leu-N-Me-Leu)] | induced SMMC-7721 cell apoptosis in dose-dependent manner | resulted in cell detachment from cell culture plates | arresting the cell cycle in the G0/G1 phase |  | 
 |  |  |  | CC(C)C[C@@H]1NC(=O)[C@H](CC(C)C)N(C)C(=O)[C@H](CC(C)C)NC(=O)[C@H](CC(C)C)N(C)C(=O)[C@H](CC(C)C)NC1=O [Galaxamide, galaxamide] (cyclo(LL[NMeL]L[NMeL])) |  | resulted in cell detachment from cell culture plates | arresting the cell cycle in the G0/G1 phase |  | 
1.25 µg/mL (≈ 2.04 µM) | 27.2 µg/mL (≈ 44.3 µM) | 8.74 µg/mL (≈ 14.2 µM) | 12.15 µg/mL (≈ 19.8 µM) | CC(C)C[C@H]1NC(=O)[C@@H](CC(C)C)NC(=O)[C@H](CC(C)C)N(C)C(=O)[C@@H](CC(C)C)NC(=O)[C@H](Cc2ccccc2)NC1=O [Compound 1, cyclo(Phe-D-Leu-N-Me-Leu-D-Leu-D-Leu)] |  |  |  | 9 fold | 10 fold
